Assay results reported in US20090149375A1, “USE OF THE MST PROTEIN FOR THE TREATMENT OF A THROMBOEMBOLIC DISORDER” (SANOFI-AVENTIS, priority 2005, published 2009).

Target: T1, GST-Mst1 (Homo sapiens, UniProt Q13043)
T1 sequence (Q13043 1-487): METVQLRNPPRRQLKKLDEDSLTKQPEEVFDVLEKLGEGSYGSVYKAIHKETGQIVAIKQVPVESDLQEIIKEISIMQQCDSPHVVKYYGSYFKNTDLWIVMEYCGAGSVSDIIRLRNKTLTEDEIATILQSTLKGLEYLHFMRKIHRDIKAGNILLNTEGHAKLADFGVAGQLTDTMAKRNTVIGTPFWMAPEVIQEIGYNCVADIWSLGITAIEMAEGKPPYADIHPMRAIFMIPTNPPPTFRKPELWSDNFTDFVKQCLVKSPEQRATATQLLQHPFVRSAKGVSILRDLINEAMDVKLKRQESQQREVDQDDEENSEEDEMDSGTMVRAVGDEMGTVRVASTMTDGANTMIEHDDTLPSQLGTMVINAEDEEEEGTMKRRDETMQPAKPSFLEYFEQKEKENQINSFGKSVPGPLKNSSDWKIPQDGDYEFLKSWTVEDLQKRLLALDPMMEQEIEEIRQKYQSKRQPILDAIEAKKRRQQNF
Assay: GST-Mst1 in vitro kinase assay (ATP consumption assay)
Details: result in words

CN[C@@H]1C[C@H]2O[C@@](C)([C@@H]1OC)n1c3ccccc3c3c4c(c5c6ccccc6n2c5c31)C(=O)NC4 [staurosporine]
inhibition of MST1 kinase activity (ATP consumption): completely inhibit
inhibition of MST1 kinase activity (ATP consumption) (listed as Staurosporine): inhibit completely
